For this experiment, the system named is Huh7 cells that stably maintain a subgenomic HCV replicon (S22.3 cell-line). Kind of experiment: Cell based HCV RNA replication assay (S22.3 replicon cells, real-time RT-PCR). Particulars: Hepatitis C virus, Huh-7, 72 hours. The method, then: Huh7 cells that stably maintain a subgenomic HCV replicon were established as previously described (Lohman et al., 1999. Science 285: 110-113) and designated as the S22.3 cell-line. S22.3 cells were maintained in Dulbecco's Modified […] Medium (DMEM) supplemented with 10% FBS and 0.5 mg/mL neomycin (Standard Medium). During the assay, DMEM medium supplemented with 10% FBS, containing 0.5% DMSO and lacking neomycin was used (Assay Medium). 16 hours prior to compound addition, S22.3 cells are trypsinized and diluted to 100 000 cells/ml in Standard Medium. 100μL (10 000 cells) are distributed into each well of a 96-well plate. The plate was then incubated at 37° C. with 5% CO2 until the next day.
10 μL of test compound (in 100% DMSO) was added to 2 ml of Assay Medium for a final DMSO concentration of 0.5% and the solution was sonicated for 15 min and filtered through a […] Millipore Filter Unit. 900 μl was transferred into row A of a Polypropylene Deep-Well Titer Plate. Rows B to H, contain 400 μL aliquots of Assay Medium (containing 0.5% DMSO), and were used to prepare serial dilutions (1/2) by transferring 400 μl from row to row (no compound was included in row H).
Cell culture medium was aspirated from the 96-well plate containing the S22.3 cells. 175 μL of assay medium with the appropriate dilution of test compound was transferred from each well of the compound plate to the corresponding well of the cell culture plate (row H was used as the “No inhibition control”). The cell culture plate was incubated at 37° C. with 5% CO2 for 72 hours.
Following the 72 hour incubation period, the total cellular RNA was extracted from the S22.3 cells of the 96-well plate using the RNeasy 96 kit (Qiagen®, RNeasy Handbook. 1999.). Briefly, assay medium was completely removed from cells and 100 μL of RLT buffer (Qiagen®) containing 143 mM β-mercaptoethanol was added to each well of the 96-well cell-culture plate. The microplate was gently shaken for 20 sec. 100 μL of 70% ethanol was then added to each microplate well, and mixed by pipetting. The lysate was removed and applied to the wells of a RNeasy 96 (Qiagen®) plate that was placed on top of a Qiagen® Square-Well Block. The RNeasy 96 plate was sealed with tape and the Square-Well Block with the RNeasy 96 plate was loaded into the holder and placed in a rotor bucket of a 4K15C centrifuge. The sample was centrifuged at 6000 rpm (˜5600×g) for 4 min at room temperature. The tape was removed from the plate and 0.8 ml of Buffer RW1 (Qiagen® RNeasy 96 kit) was added to each well of the RNeasy 96 plate. The RNeasy 96 plate was sealed with a new piece of tape and centrifuged at 6000 rpm for 4 min at room temperature. The RNeasy 96 plate was placed on top of another clean Square-Well Block, the tape removed and 0.8 ml of Buffer RPE (Qiagen® RNeasy 96 kit) was added to each well of the RNeasy 96 plate. The RNeasy 96 plate was sealed with a new piece of tape and centrifuged at 6000 rpm for 4 min at room temperature. The tape was removed and another 0.8 ml of Buffer RPE (Qiagen® RNeasy 96 kit) was added to each well of the RNeasy 96 plate. The RNeasy 96 plate was sealed with a new piece of tape and centrifuged at 6000 rpm for 10 min at room temperature. Tape was removed, the RNeasy 96 plate was placed on top of a rack containing 1.2-mL collection microtubes. The RNA was eluted by adding 50 μL of RNase-free water to each well, sealing plate with a new piece of tape and incubated for 1 min at room temperature. The plate was then centrifuged at 6000 rpm for 4 min at room temperature. The elution step was repeated with a second volume of 50 μl RNase-free water. The microtubes with total cellular RNA are stored at −70° C.
RNA was quantified on the STORM® system (Molecular Dynamics®) using the RiboGreen® RNA Quantification Kit (Molecular Probes®). Briefly, the RiboGreen reagent was diluted 200-fold in TE (10 mM Tris-HCl pH=7.5, 1 mM EDTA). Generally, 50 μL of reagent was diluted in 10 mL TE. […]
(In general: Replicon systems follow genome replication, usually without infectious particles.)

Regarding `O=C(O)/C=C/c1ccc(NC(=O)C2(NC(=O)c3ccc4c(c3)nc(-c3cccs3)n4C3CCCCC3)CCCC2)cc1` [compound 2050], the EC50 (usually the midpoint of the concentration-response curve) was at most 5 µM.

Take `CC(NC(=O)c1ccc2c(c1)nc(-c1ccoc1)n2C1CCCCC1)C(=O)Nc1ccc(/C=C/C(=O)O)cc1` (stereo not drawn) [compound 1054]: the EC50 lay within 5 to 50 µM.

Molecule `CC1CCCC(C)C1n1c(-c2ccco2)nc2cc(C(=O)NC3(C(=O)Nc4ccc(C=CC(=O)O)cc4)CCCC3)ccc21` (mixture of isomers) [compound 2033] came in with a half-maximal effective concentration (EC50) of at most 5 µM.

Consider `O=C(O)C=Cc1ccc(NC(=O)C2(NC(=O)c3ccc4c(c3)nc(-c3ccccn3)n4C3CC4CCC3C4)CCCC2)cc1` (mixture of isomers) [compound 2020], for which the EC50 is at most 5 µM.

In the case of `Cc1nc(C(=O)O)sc1-c1ccc(NC(=O)C2(NC(=O)c3ccc4c(c3)nc(-c3ccoc3)n4C3CCCCC3)CCCC2)cc1` [compound 1091], the EC50 is at most 5 µM.

Consider `CCN1CCC(NC(=O)c2ccc3c(c2)nc(-c2ccoc2)n3C2CCCCC2)(C(=O)Nc2ccc(-c3nc(C(N)=O)cs3)cc2)CC1` [compound 1109], for which the EC50 was at most 5 µM.

In turn, `CCN1CCC(NC(=O)c2ccc3c(c2)nc(-c2ccoc2)n3C2CCCCC2)(C(=O)Nc2ccc(-c3nc(C(=O)O)cs3)cc2)CC1` [compound 1108] returned an EC50 of at most 5 µM.

Molecule `CCC[C@@H](NC(=O)c1ccc2c(c1)nc(-c1ccoc1)n2C1CCCCC1)C(=O)Nc1ccc(/C=C/C(=O)O)cc1` [compound 1076] returned an EC50 of at most 5 µM.

The molecule `O=C(O)C=Cc1ccc(NC(=O)C2(NC(=O)c3ccc4c(c3)nc(-c3cccs3)n4C3CC4CCC3C4)CCCC2)cc1` (mixture of isomers) [compound 2019] came in with an EC50 of at most 5 µM.

`O=C(O)/C=C/c1ccc(NC(=O)C2(NC(=O)c3ccc4c(c3)nc(-c3ccoc3)n4C3CCCCC3)CCCC2)cc1` [compound 1071]: the EC50 is at most 5 µM.

For the molecule `O=C(NC1(C(=O)Nc2ccc3[nH]c(C(=O)O)cc3c2)CCCC1)c1ccc2c(c1)nc(-c1ccoc1)n2C1CCCCC1` [compound 1098], the EC50 is 5 to 50 µM.

With `Cn1c(C(=O)O)cc2cc(NC(=O)C3(NC(=O)c4ccc5c(c4)nc(-c4ccoc4)n5C4CCCCC4)CCCC3)ccc21` [compound 1077], the EC50 was at most 5 µM.
